Test results: ChEMBL document CHEMBL1201862, “PubChem BioAssay data set” (2004)
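These data come from cells grown in 96-well plates and exposed to compound for 48 hours at five concentrations. GI50 is the concentration that inhibits growth by half.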 Calls of active or inactive are those of the source. No stated cut-off is given here; in the data, active = GI50 up to about 1.1 µM and inactive = higher.

Columns and labels:
Experiment in all cases: growth of human tumour cells (NCI), 48 h
[1] = system: A498
[2] = system: ACHN
[3] = system: SNB-78
[4] = system: CCRF-CEM
[5] = system: OVCAR-4
[6] = system: HOP-92
[7] = system: SF-295
[8] = system: SK-MEL-28
[9] = system: SF-539
[10] = system: SW-620
[11] = system: HT-29
[12] = system: XF498
[13] = system: COLO 205
[14] = system: SNB-19
[15] = system: UACC-257
[16] = system: HCC 2998
[17] = system: HOP-62
[18] = system: SNB-75
[19] = system: IGROV-1
[20] = system: RXF 393
[21] = system: NCI-H522
[22] = system: OVCAR-5
[23] = system: SR
[24] = system: TK-10
[25] = system: A549
[26] = system: HOP-18
[27] = system: NCI-H23
[28] = system: SN12C
[29] = system: LXFL 529
[30] = system: DLD-1
[31] = system: Malme-3M
[32] = system: SK-MEL-2
[33] = system: U-251
[34] = system: CAKI-1
[35] = system: SK-OV-3
[36] = system: OVCAR-3
[37] = system: NCI-H460
[38] = system: HCT-116
[39] = system: EKVX
[40] = system: 786-0
[41] = system: M14
[42] = system: K562
[43] = system: M19-MEL
[44] = system: DMS-273
[45] = system: NCI-H226
[46] = system: HL-60
[47] = system: UACC-62
[48] = system: UO-31
[49] = system: KM12
[50] = system: MOLT-4
[51] = system: LOX IMVI
[52] = system: SK-MEL-5
[53] = system: OVCAR-8
[54] = system: SF-268
[55] = system: KM-20L2
[56] = system: RPMI-8226
[57] = system: HCT-15

**Q.** Which results are given for `O=C1CC(S(=O)(=O)O)C=C1Nc1cccc(Cl)c1` (configuration not stated)?
**A.** GI50 [1]: > 100 µM (inactive); GI50 [2]: > 100 µM (inactive); GI50 [3]: > 100 µM (inactive); GI50 [4]: > 100 µM (inactive); GI50 [5]: > 100 µM (inactive); GI50 [6]: > 100 µM (inactive); GI50 [7]: > 100 µM (inactive); GI50 [8]: > 100 µM (inactive); GI50 [9]: > 100 µM (inactive); GI50 [10]: > 100 µM (inactive); GI50 [11]: > 100 µM (inactive); GI50 [12]: > 100 µM (inactive); GI50 [13]: > 100 µM (inactive); GI50 [14]: > 100 µM (inactive); GI50 [15]: > 100 µM (inactive); GI50 [16]: > 100 µM (inactive); GI50 [17]: > 100 µM (inactive); GI50 [18]: > 100 µM (inactive); GI50 [19]: > 100 µM (inactive); GI50 [20]: > 100 µM (inactive); GI50 [21]: > 100 µM (inactive); GI50 [22]: > 100 µM (inactive); GI50 [23]: > 100 µM (inactive); GI50 [24]: > 100 µM (inactive); GI50 [25]: > 100 µM (inactive); GI50 [26]: > 100 µM (inactive); GI50 [27]: > 100 µM (inactive); GI50 [28]: > 100 µM (inactive); GI50 [29]: > 100 µM (inactive); GI50 [30]: > 100 µM (inactive); GI50 [31]: > 100 µM (inactive); GI50 [32]: > 100 µM (inactive); GI50 [33]: > 100 µM (inactive); GI50 [34]: > 100 µM (inactive); GI50 [35]: > 100 µM (inactive); GI50 [36]: > 100 µM (inactive); GI50 [37]: > 100 µM (inactive); GI50 [38]: > 100 µM (inactive); GI50 [39]: > 100 µM (inactive); GI50 [40]: > 100 µM (inactive); GI50 [41]: > 100 µM (inactive); GI50 [42]: > 100 µM (inactive); GI50 [43]: > 100 µM (inactive); GI50 [44]: > 100 µM (inactive); GI50 [45]: > 100 µM (inactive); GI50 [46]: > 100 µM (inactive); GI50 [47]: > 100 µM (inactive); GI50 [48]: > 100 µM (inactive); GI50 [49]: > 100 µM (inactive); GI50 [50]: > 100 µM (inactive); GI50 [51]: > 100 µM (inactive); GI50 [52]: > 100 µM (inactive); GI50 [53]: > 100 µM (inactive); GI50 [54]: > 100 µM (inactive); GI50 [55]: > 100 µM (inactive)

**Q.** With `COc1cc2cc3c4c(cc(OC)c(OC)c4c2cc1OC)CCN3C(=O)OCCN1CCNCC1` as the molecule, how does the GI50 [1] read?
**A.** 14.6 µM (inactive)

**Q.** What about the GI50 [2] of the same molecule?
**A.** 15.1 µM (inactive)

**Q.** And the GI50 [3]?
**A.** 16 µM (inactive)

**Q.** What about the GI50 [4] of the same molecule?
**A.** 18.4 µM (inactive)

**Q.** And the GI50 [5]?
**A.** 17.5 µM (inactive)

**Q.** And the GI50 [6]?
**A.** 12.9 µM (inactive)

**Q.** And the GI50 [7]?
**A.** 15 µM (inactive)

**Q.** What about the GI50 [8] of the same molecule?
**A.** 18.5 µM (inactive)

**Q.** And the GI50 [9]?
**A.** 15.1 µM (inactive)

**Q.** What about the GI50 [56] of the same molecule?
**A.** 14.1 µM (inactive)

**Q.** What about the GI50 [10] of the same molecule?
**A.** 14.9 µM (inactive)

**Q.** What about the GI50 [11] of the same molecule?
**A.** 12.6 µM (inactive)

**Q.** And the GI50 [12]?
**A.** 15.3 µM (inactive)

**Q.** And the GI50 [13]?
**A.** 8.22 µM (inactive)

**Q.** And the GI50 [14]?
**A.** 21.9 µM (inactive)

**Q.** What about the GI50 [15] of the same molecule?
**A.** 14.9 µM (inactive)

**Q.** And the GI50 [16]?
**A.** 16.1 µM (inactive)

**Q.** What about the GI50 [17] of the same molecule?
**A.** 17.1 µM (inactive)

**Q.** What about the GI50 [18] of the same molecule?
**A.** 11.9 µM (inactive)

**Q.** And the GI50 [19]?
**A.** 17.3 µM (inactive)

**Q.** And the GI50 [20]?
**A.** 14.4 µM (inactive)

**Q.** And the GI50 [21]?
**A.** 16.6 µM (inactive)

**Q.** And the GI50 [22]?
**A.** 18 µM (inactive)

**Q.** And the GI50 [23]?
**A.** 11.2 µM (inactive)

**Q.** What about the GI50 [24] of the same molecule?
**A.** 15 µM (inactive)

**Q.** And the GI50 [25]?
**A.** 18.5 µM (inactive)

**Q.** What about the GI50 [26] of the same molecule?
**A.** 17 µM (inactive)

**Q.** What about the GI50 [27] of the same molecule?
**A.** 17.4 µM (inactive)

**Q.** And the GI50 [28]?
**A.** 15.9 µM (inactive)

**Q.** What about the GI50 [29] of the same molecule?
**A.** 15.1 µM (inactive)

**Q.** What about the GI50 [57] of the same molecule?
**A.** 15.5 µM

**Q.** What about the GI50 [30] of the same molecule?
**A.** 15.2 µM (inactive)

**Q.** What about the GI50 [31] of the same molecule?
**A.** 17.3 µM (inactive)

**Q.** And the GI50 [32]?
**A.** 19.3 µM (inactive)

**Q.** And the GI50 [33]?
**A.** 15.3 µM (inactive)

**Q.** And the GI50 [34]?
**A.** 15 µM (inactive)

**Q.** And the GI50 [35]?
**A.** 17.9 µM (inactive)

**Q.** And the GI50 [36]?
**A.** 15.3 µM (inactive)

**Q.** And the GI50 [37]?
**A.** 13.5 µM (inactive)

**Q.** What about the GI50 [38] of the same molecule?
**A.** 11.9 µM (inactive)

**Q.** What about the GI50 [39] of the same molecule?
**A.** 15.1 µM (inactive)

**Q.** And the GI50 [40]?
**A.** 11.6 µM (inactive)

**Q.** What about the GI50 [41] of the same molecule?
**A.** 14.7 µM (inactive)

**Q.** And the GI50 [42]?
**A.** 12.6 µM (inactive)

**Q.** And the GI50 [43]?
**A.** 6.95 µM (inactive)

**Q.** What about the GI50 [44] of the same molecule?
**A.** 13.5 µM (inactive)

**Q.** What about the GI50 [45] of the same molecule?
**A.** 14.4 µM (inactive)

**Q.** And the GI50 [46]?
**A.** 13.2 µM (inactive)

**Q.** What about the GI50 [47] of the same molecule?
**A.** 14.9 µM (inactive)

**Q.** And the GI50 [48]?
**A.** 14.9 µM (inactive)

**Q.** What about the GI50 [49] of the same molecule?
**A.** 15.1 µM (inactive)

**Q.** What about the GI50 [50] of the same molecule?
**A.** 16.1 µM (inactive)

**Q.** What about the GI50 [51] of the same molecule?
**A.** 13.7 µM (inactive)

**Q.** And the GI50 [52]?
**A.** 14.3 µM (inactive)

**Q.** What about the GI50 [53] of the same molecule?
**A.** 15.9 µM (inactive)

**Q.** And the GI50 [54]?
**A.** 11.1 µM (inactive)

**Q.** And the GI50 [55]?
**A.** 11.8 µM (inactive)
